Source: US10064909B2, “Compositions and methods for chronic use of a weight-gaining compound” (priority 2015, dated 2018)
Entries after “also recorded” stand apart in the source; their conditions may differ.

How the values were obtained:
[1] = Safety of capromorelin administered daily to Beagle dogs for one year; type: in vivo; conditions: for high dose relative to proposed clinical dose for dogs (safety margin): 52.4 mg/kg vs proposed clinical dose; for high dose relative to proposed clinical dose for dogs (safety margin) / tolerability / toxicity: L-tartrate; for tolerability / toxicity: oral gavage once daily, doses up to 52.4 mg/kg
Protocol: (§1) This study evaluated the safety of capromorelin in dogs. Thirty-two Beagle dogs were randomly assigned to four groups (n=4/sex/group) and received 0 mg/kg, 0.39 mg/kg, 9.2 mg/kg, or 52.4 mg/kg capromorelin (with the dose calculated per the tartrate salt) once daily by oral gavage for 12 consecutive months. Safety parameters were evaluated including clinical signs, food consumption, bodyweight, clinical pathology, urinalysis, ophthalmology, electrocardiogram and vital signs. Capromorelin, GH and IGF-1 were measured in plasma samples collected at various time points during the study. At the end of the dosing period, dogs were humanely euthanized and necropsied. Selected organs were weighed and tissue samples collected and processed for microscopic examination.

GH = test: One-year dog safety study: GH plasma levels; type: in vivo, Beagle dogs; conditions: dogs, Days 1, 170 and 351 following treatment
Protocol: as §1

IGF-1 [2] = test: One-year dog safety study: IGF-1 plasma levels; type: in vivo, Beagle dogs; conditions: dogs, following treatment, sustained over time to Day 351
Protocol: as §1

[3] = Capromorelin efficacy in cats for 21 days: food consumption and bodyweight; type: in vivo; conditions: for mean food intake increase over baseline: Day 1 to Day 21 vs Days -3 to -1
Protocol: (§2) Thirty-two cats (16 neutered males, 16 females) were divided into 4 treatment groups including 4 animals of each sex per group. The cats were acclimated to the study environment for 10 days prior to study start. All cats were orally dosed with placebo (Group 1) or capromorelin (30 mg/ml oral solution, Formulation 9 as described above) at 1 mg/kg (Group 2), 2 mg/kg (Group 3) or 3 mg/kg (Group 4), for 21 days, with dosing starting on Day 1. Physical examinations were performed on Day −10 and general health observations made daily. Body weights were evaluated on Days −10, −8, −1, 1, 8, 15 and 22 days. Cats were fed about 1 hour after dosing. Commercial dry cat food (300 g) was provided for 5 hours and then removed and the amount of food consumed (g) calculated per cat. On Days 1, 14 and 21, blood samples were collected prior to daily dose administration and at 8 hours post-dose and serum processed for measurement of IGF-1 levels.
On Day 12, two study animals (one male each from Groups 1 and 4) were removed for reasons unrelated to the study and were not included in the data analysis. Cat 4M4 in the 3 mg/kg group lost significant weight during the first 8 days of treatment—then rebounded and began to gain the weight back. Statistical analysis for weight gain was completed with and without this cat's (4M4) data included.

IGF-1 [4] = test: Capromorelin efficacy in cats for 21 days: serum IGF-1 levels; type: in vivo
Protocol: as §2

IGF-1 [5] = test: Laboratory cats modelling CKD safety pilot study: IGF-1 levels; type: in vivo; conditions: cats with compromised kidney function, 2 mg/kg subcutaneous injection for 14 days
Protocol: Sixteen cats with compromised kidney function were enrolled in the study and randomized to three groups. Animals assigned to Group 1 (n=6) were administered AT-002 once on Day 0 by intravenous catheter at a dose rate of 0.75 mg/kg per cat. Animals assigned to Group 2 (n=6) were administered the AT-002 daily for 14 days by subcutaneous injection at a dose rate of 2 mg/kg. Subcutaneous and intravenous treatment routes were used to assure that sufficient drug exposure occurred. Animals assigned to Group 3 (n=4) served as untreated controls.
Blood samples were collected for capromorelin and/or IGF-1 analysis from animals assigned to Group 1 on Study Day 0. Blood samples were also collected from animals assigned to Groups 2 and 3 on Study Days −1 and 13 (prior to dosing) for hematology and clinical chemistry analysis. Appetite was assessed by food intake and weight gain. Bodyweight measurements were performed on Days −7, −1 (all groups) and on Day 13 (Groups 2 and 3 only). Food intake was monitored from Day −7 to Day 13 inclusive for animals assigned to Groups 2 and 3. Animals were observed daily for clinical signs.

IGF-1 [6] = test: Example 9 field study: IGF-1 serum levels; type: in vivo; conditions: cats with CKD, 2 mg/kg once daily
Protocol: A 1-mL blood sample was collected into a vacutainer tube containing no anticoagulant at the screening/qualification/Day 0, Day 30±2, Day 60±3 and Day 90±3 or at the last study visit (i.e. early removal). Blood samples were kept at room temperature and allowed to clot for about 1 hour. Clotted samples were centrifuged for approximately 15 minutes at 3000 RPM.

CN1N=C2CCN(C(=O)[C@@H](COCc3ccccc3)NC(=O)C(C)(C)N)C[C@@]2(Cc2ccccc2)C1=O.O=C(O)C(O)C(O)C(=O)O [capromorelin, N-[(2R)-1-[(3aR)-2-methyl-3-oxo-3a-(phenylmethyl)-6,7-dihydro-4H-pyrazolo[4,3-c]pyridin-5-yl]-1-oxo-3-(phenylmethoxy)propan-2-yl]-2-amino-2-methylpropanamide L-tartrate]
pressure rate quotient (PRQ) interval, electrocardiogram ([1]; 52.4 mg/kg and 9.2 mg/kg groups, 1 to 2 hours following dosing): slight increases | absolute liver weights ([1]; 52.4 mg/kg dose): Increased | red blood cells, hemoglobin and hematocrit ([1]; 52.4 mg/kg group): slight deceases | cholesterol, HDL and alkaline phosphatase serum levels ([1]; 52.4 mg/kg group compared to placebo): statistically significantly increased | high dose relative to proposed clinical dose for dogs (safety margin) [1]: about 17.5 times | high dose relative to proposed clinical dose for dogs (safety margin) ([1]; listed as Capromorelin): approximately 17.5 times | hepatocellular cytoplasmic vacuolation ([1]; all capromorelin treated groups): slight increase | clinical signs related to capromorelin ([1]; dogs, 12 months, noted sporadically): salivation and loose stool | capromorelin plasma levels: accumulation ([1]; dogs, Days 90, 181 and 349): no accumulation of drug | reddening/swollen paws ([1]; dogs, higher dose treatments): increased incidence | tolerability / toxicity ([1]; dogs, 12 months): well-tolerated; also recorded: favorable toxicology | tolerability / toxicity ([1]; dogs, 12 months, listed as Capromorelin): minimal toxicity | effects on food consumption, bodyweight, ophthalmic exams, vital signs or gross pathology ([1]; dogs, up to 52.4 mg/kg daily, 12 months): no negative effects | GH plasma levels (GH): increased modestly | IGF-1 plasma levels (IGF-1 [2]): increased | mean percent bodyweight change ([3]; 1 mg/kg (Group 2), Day 15): 4.24% | mean percent bodyweight change ([3]; 1 mg/kg (Group 2), Day 22 (21-day exposure)): 5.41% | mean food intake increase over baseline ([3]; 1 mg/kg oral (Group 2)): 25.32% | mean percent bodyweight change ([3]; 2 mg/kg (Group 3), Day 8): 3.23% | mean percent bodyweight change ([3]; 2 mg/kg (Group 3), Day 15): 5.97% | mean percent bodyweight change ([3]; 2 mg/kg (Group 3), Day 22 (21-day exposure)): 6.61% | mean food intake increase over baseline ([3]; 2 mg/kg oral (Group 3)): 45.67% | mean food consumption change from baseline ([3]; 2 mg/kg, interval Day 8 through Day 14): 54.42% | mean percent bodyweight change ([3]; 3 mg/kg (Group 4), 21-day exposure): 3.92% | mean food intake increase over baseline ([3]; 3 mg/kg oral (Group 4)): 29.59% | group mean serum IGF-1 increase from 0 to 8 hours post-dose (IGF-1 [4]; 1 mg/kg (Group 2), Day 1): 46.69% | group mean serum IGF-1 increase from 0 to 8 hours post-dose (IGF-1 [4]; 1 mg/kg (Group 2), Day 14): 17.27% | group mean serum IGF-1 increase from 0 to 8 hours post-dose (IGF-1 [4]; 1 mg/kg (Group 2), Day 21): 9.81% | group mean serum IGF-1 increase from 0 to 8 hours post-dose (IGF-1 [4]; 2 mg/kg (Group 3), Day 1): 29.38% | group mean serum IGF-1 increase from 0 to 8 hours post-dose (IGF-1 [4]; 2 mg/kg (Group 3), Day 14): 9.00% | group mean serum IGF-1 increase from 0 to 8 hours post-dose (IGF-1 [4]; 2 mg/kg (Group 3), Day 21): 2.68% | group mean serum IGF-1 increase from 0 to 8 hours post-dose (IGF-1 [4]; 3 mg/kg (Group 4), Day 1): 36.77% | group mean serum IGF-1 increase from 0 to 8 hours post-dose (IGF-1 [4]; 3 mg/kg (Group 4), Day 14): 18.56% | group mean serum IGF-1 increase from 0 to 8 hours post-dose (IGF-1 [4]; 3 mg/kg (Group 4), Day 21): 5.17% | IGF-1 levels (IGF-1 [5]): sustained increase | IGF-1 serum levels following administration (IGF-1 [6]): increase
